Data published in US20230085307A1, “PYRIDAZINONE COMPOUND AND HERBICIDE” (NISSAN CHEMICAL CORPORATION, priority 2019, published 2023).

These compounds were tested on green foxtail (assay: Test Example 4: herbicidal effect by soil treatment (Table 19, symbol G)). Conditions: 320 g/ha.
Format: in vivo, green foxtail (Setaria viridis)
Outline: (§1)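 Three weeks of greenhouse growth at 25° C. to 30° C. followed a uniform surface spray of water-diluted emulsion at a predetermined herbicide amount. Seeds had been sown beforehand under about 1.5 cm of sterilized diluvial soil. Grading followed criteria set out in an earlier test.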

SMILES	herbicidal effect rating, G: green foxtail
Cc1nn(C)c(=O)c(-c2c(-c3ccc(OC4CCCC4)cc3)sc3ccc(F)cc23)c1O [2-039]	0 (Herbicidal rate of 5% or less (almost no effect))
CCCCCOc1ccc(-c2sc3ccc(F)cc3c2-c2c(OC(=O)CCC)c(C)nn(C)c2=O)cc1 [2-038]	0 (Herbicidal rate of 5% or less (almost no effect))
CCCC(=O)Oc1c(C)nn(C)c(=O)c1-c1c(-c2ccc(OC)cc2)sc2ccc(F)cc12 [2-027]	4 (Herbicidal rate of 70% or more and less than 90%)

These compounds were tested on Japanese bulrush (assay: Test Example 1: herbicidal activity, application before weed generation under submerged conditions (Table 16, symbol B)). Conditions: 320 g/ha applied herbicide.
Format: in vivo, Japanese bulrush (Schoenoplectus juncoides)
Outline: (§2)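 Emulsion formulation, water-diluted to set dose, was put onto the flooded surface (4 cm depth, alluvial soil) the same day weeds were sown and 2.5-leaf rice transplanted. After 3 weeks at 25-30 °C under glass, each species was rated 0 (≤5% kill) to 5 (≥90% kill).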

SMILES	Herbicidal effect on B: Japanese bulrush (grade 0-5)
Cc1nn(C)c(=O)c(-c2c(-c3ccc(OC4CCCC4)cc3)sc3ccc(F)cc23)c1O [2-039]	4 (Herbicidal rate of 70% or more and less than 90%)
CCCCCOc1ccc(-c2sc3ccc(F)cc3c2-c2c(OC(=O)CCC)c(C)nn(C)c2=O)cc1 [2-038]	0 (Herbicidal rate of 5% or less (almost no effect))
CCCC(=O)Oc1c(C)nn(C)c(=O)c1-c1c(-c2ccc(OC)cc2)sc2ccc(F)cc12 [2-027]	5 (Herbicidal rate of 90% or more (almost completely withered))

Each compound was assayed on redroot pigweed (assay: Test Example 4: herbicidal effect by soil treatment (Table 19, symbol N)). Conditions: 320 g/ha.
Format: in vivo, redroot pigweed (Amaranthus retroflexus)
Outline: as §1

SMILES	herbicidal effect rating, N: redroot pigweed
Cc1nn(C)c(=O)c(-c2c(-c3ccc(OC4CCCC4)cc3)sc3ccc(F)cc23)c1O [2-039]	3 (Herbicidal rate of 40% or more and less than 70%)
CCCCCOc1ccc(-c2sc3ccc(F)cc3c2-c2c(OC(=O)CCC)c(C)nn(C)c2=O)cc1 [2-038]	3 (Herbicidal rate of 40% or more and less than 70%)
CCCC(=O)Oc1c(C)nn(C)c(=O)c1-c1c(-c2ccc(OC)cc2)sc2ccc(F)cc12 [2-027]	5 (Herbicidal rate of 90% or more (almost completely withered))

The compounds below were run on blackgrass (assay: Test Example 5: herbicidal effect by foliage application, plastic box (Table 20, symbol J)). Conditions: foliage application, 320 g/ha, 3 weeks after application.
Format: in vivo, blackgrass (Alopecurus myosuroides)
Outline: (§3)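 Plants sown in sterilized diluvial soil and grown 14 days in a greenhouse at 25° C to 30° C, then sprayed on the foliage with the compound's emulsion diluted in water to a predetermined herbicide amount. Injury to weeds and crops scored three weeks after application on a visual rating scale.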

SMILES	effect on blackgrass (J)
Cc1nn(C)c(=O)c(-c2c(-c3ccc(OC4CCCC4)cc3)sc3ccc(F)cc23)c1O [2-039]	1 (Herbicidal rate of 5% or more and less than 20%)
CCCCCOc1ccc(-c2sc3ccc(F)cc3c2-c2c(OC(=O)CCC)c(C)nn(C)c2=O)cc1 [2-038]	0 (Herbicidal rate of 5% or less (almost no effect))
CCCC(=O)Oc1c(C)nn(C)c(=O)c1-c1c(-c2ccc(OC)cc2)sc2ccc(F)cc12 [2-027]	2 (Herbicidal rate of 20% or more and less than 40%)

Each compound was assayed on rice flat sedge (assay: Test Example 3: herbicidal effect by foliage application, Wagner pot (Table 18, symbol E)). Conditions: 320 g/ha.
Format: in vivo, rice flat sedge (Cyperus iria)
Outline: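 Plants were sown in alluvial soil held under 0.1–0.5 cm standing water and grown 14 days in a greenhouse at 25–30 °C. An emulsifiable formulation, water-diluted to the set dose, was then sprayed onto the foliage, and effects were scored three weeks later using previously defined criteria.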

SMILES	herbicidal effect on E (rice flat sedge), rating 0-5
Cc1nn(C)c(=O)c(-c2c(-c3ccc(OC4CCCC4)cc3)sc3ccc(F)cc23)c1O [2-039]	3 (Herbicidal rate of 40% or more and less than 70%)
CCCCCOc1ccc(-c2sc3ccc(F)cc3c2-c2c(OC(=O)CCC)c(C)nn(C)c2=O)cc1 [2-038]	4 (Herbicidal rate of 70% or more and less than 90%)
CCCC(=O)Oc1c(C)nn(C)c(=O)c1-c1c(-c2ccc(OC)cc2)sc2ccc(F)cc12 [2-027]	5 (Herbicidal rate of 90% or more (almost completely withered))

These compounds were tested on green foxtail (assay: Test Example 5: herbicidal effect by foliage application, plastic box (Table 20, symbol G)). Conditions: foliage application, 320 g/ha, 3 weeks after application.
Format: in vivo, green foxtail (Setaria viridis)
Outline: as §3

SMILES	effect on green foxtail (G)
Cc1nn(C)c(=O)c(-c2c(-c3ccc(OC4CCCC4)cc3)sc3ccc(F)cc23)c1O [2-039]	5 (Herbicidal rate of 90% or more (almost completely withered))
CCCCCOc1ccc(-c2sc3ccc(F)cc3c2-c2c(OC(=O)CCC)c(C)nn(C)c2=O)cc1 [2-038]	1 (Herbicidal rate of 5% or more and less than 20%)
CCCC(=O)Oc1c(C)nn(C)c(=O)c1-c1c(-c2ccc(OC)cc2)sc2ccc(F)cc12 [2-027]	4 (Herbicidal rate of 70% or more and less than 90%)

Each compound was assayed on chickweed (assay: Test Example 4: herbicidal effect by soil treatment (Table 19, symbol P)). Conditions: 320 g/ha.
Format: in vivo, common chickweed (Stellaria media)
Outline: as §1

SMILES	herbicidal effect rating, P: chickweed
Cc1nn(C)c(=O)c(-c2c(-c3ccc(OC4CCCC4)cc3)sc3ccc(F)cc23)c1O [2-039]	3 (Herbicidal rate of 40% or more and less than 70%)
CCCCCOc1ccc(-c2sc3ccc(F)cc3c2-c2c(OC(=O)CCC)c(C)nn(C)c2=O)cc1 [2-038]	1 (Herbicidal rate of 5% or more and less than 20%)
CCCC(=O)Oc1c(C)nn(C)c(=O)c1-c1c(-c2ccc(OC)cc2)sc2ccc(F)cc12 [2-027]	4 (Herbicidal rate of 70% or more and less than 90%)

The compounds below were run on oval-leafed pondweed (assay: Test Example 2: herbicidal activity, application during weed generation under submerged conditions (Table 17, symbol C)). Conditions: AAH 320 g/ha; application during weed generation, submerged conditions.
Format: in vivo, oval-leafed pondweed (Monochoria vaginalis)
Outline: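 In this pot test, flooded alluvial soil (water depth 4 cm) holds all three species sown as a mixture. Once seedlings have one to two leaves, the compound's emulsion, thinned with water to the intended dose, is poured on the water; grading follows after three weeks on the earlier criteria.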

SMILES	herbicidal effect rating, C: oval-leafed pondweed
Cc1nn(C)c(=O)c(-c2c(-c3ccc(OC4CCCC4)cc3)sc3ccc(F)cc23)c1O [2-039]	2 (Herbicidal rate of 20% or more and less than 40%)
CCCCCOc1ccc(-c2sc3ccc(F)cc3c2-c2c(OC(=O)CCC)c(C)nn(C)c2=O)cc1 [2-038]	0 (Herbicidal rate of 5% or less (almost no effect))
CCCC(=O)Oc1c(C)nn(C)c(=O)c1-c1c(-c2ccc(OC)cc2)sc2ccc(F)cc12 [2-027]	5 (Herbicidal rate of 90% or more (almost completely withered))

What follows are compounds tested on barnyard grass (assay: Test Example 5: herbicidal effect by foliage application, plastic box (Table 20, symbol H)). Conditions: foliage application, 320 g/ha, 3 weeks after application.
Format: in vivo, barnyard grass (Echinochloa crus-galli)
Outline: as §3

SMILES	effect on barnyard grass (H)
Cc1nn(C)c(=O)c(-c2c(-c3ccc(OC4CCCC4)cc3)sc3ccc(F)cc23)c1O [2-039]	5 (Herbicidal rate of 90% or more (almost completely withered))
CCCCCOc1ccc(-c2sc3ccc(F)cc3c2-c2c(OC(=O)CCC)c(C)nn(C)c2=O)cc1 [2-038]	0 (Herbicidal rate of 5% or less (almost no effect))
CCCC(=O)Oc1c(C)nn(C)c(=O)c1-c1c(-c2ccc(OC)cc2)sc2ccc(F)cc12 [2-027]	5 (Herbicidal rate of 90% or more (almost completely withered))

What follows are compounds tested on wild oat (assay: Test Example 4: herbicidal effect by soil treatment (Table 19, symbol I)). Conditions: 320 g/ha.
Format: in vivo, wild oat (Avena fatua)
Outline: as §1

SMILES	herbicidal effect rating, I: wild oat
Cc1nn(C)c(=O)c(-c2c(-c3ccc(OC4CCCC4)cc3)sc3ccc(F)cc23)c1O [2-039]	0 (Herbicidal rate of 5% or less (almost no effect))
CCCCCOc1ccc(-c2sc3ccc(F)cc3c2-c2c(OC(=O)CCC)c(C)nn(C)c2=O)cc1 [2-038]	0 (Herbicidal rate of 5% or less (almost no effect))
CCCC(=O)Oc1c(C)nn(C)c(=O)c1-c1c(-c2ccc(OC)cc2)sc2ccc(F)cc12 [2-027]	2 (Herbicidal rate of 20% or more and less than 40%)

The compounds below were run on oval-leafed pondweed (assay: Test Example 1: herbicidal activity, application before weed generation under submerged conditions (Table 16, symbol C)). Conditions: 320 g/ha applied herbicide.
Format: in vivo, oval-leafed pondweed (Monochoria vaginalis)
Outline: as §2

SMILES	Herbicidal effect on C: oval-leafed pondweed (grade 0-5)
Cc1nn(C)c(=O)c(-c2c(-c3ccc(OC4CCCC4)cc3)sc3ccc(F)cc23)c1O [2-039]	5 (Herbicidal rate of 90% or more (almost completely withered))
CCCCCOc1ccc(-c2sc3ccc(F)cc3c2-c2c(OC(=O)CCC)c(C)nn(C)c2=O)cc1 [2-038]	0 (Herbicidal rate of 5% or less (almost no effect))
CCCC(=O)Oc1c(C)nn(C)c(=O)c1-c1c(-c2ccc(OC)cc2)sc2ccc(F)cc12 [2-027]	4 (Herbicidal rate of 70% or more and less than 90%)

Each compound was assayed on wild oat (assay: Test Example 5: herbicidal effect by foliage application, plastic box (Table 20, symbol I)). Conditions: foliage application, 320 g/ha, 3 weeks after application.
Format: in vivo, wild oat (Avena fatua)
Outline: as §3

SMILES	effect on wild oat (I)
Cc1nn(C)c(=O)c(-c2c(-c3ccc(OC4CCCC4)cc3)sc3ccc(F)cc23)c1O [2-039]	4 (Herbicidal rate of 70% or more and less than 90%)
CCCCCOc1ccc(-c2sc3ccc(F)cc3c2-c2c(OC(=O)CCC)c(C)nn(C)c2=O)cc1 [2-038]	0 (Herbicidal rate of 5% or less (almost no effect))
CCCC(=O)Oc1c(C)nn(C)c(=O)c1-c1c(-c2ccc(OC)cc2)sc2ccc(F)cc12 [2-027]	4 (Herbicidal rate of 70% or more and less than 90%)

These compounds were tested on velvetleaf (assay: Test Example 5: herbicidal effect by foliage application, plastic box (Table 20, symbol M)). Conditions: foliage application, 320 g/ha, 3 weeks after application.
Format: in vivo, velvetleaf (Abutilon theophrasti)
Outline: as §3

SMILES	effect on velvetleaf (M)
Cc1nn(C)c(=O)c(-c2c(-c3ccc(OC4CCCC4)cc3)sc3ccc(F)cc23)c1O [2-039]	3 (Herbicidal rate of 40% or more and less than 70%)
CCCCCOc1ccc(-c2sc3ccc(F)cc3c2-c2c(OC(=O)CCC)c(C)nn(C)c2=O)cc1 [2-038]	4 (Herbicidal rate of 70% or more and less than 90%)
CCCC(=O)Oc1c(C)nn(C)c(=O)c1-c1c(-c2ccc(OC)cc2)sc2ccc(F)cc12 [2-027]	5 (Herbicidal rate of 90% or more (almost completely withered))

The compounds below were run on barnyard grass (assay: Test Example 4: herbicidal effect by soil treatment (Table 19, symbol H)). Conditions: 320 g/ha.
Format: in vivo, barnyard grass (Echinochloa crus-galli)
Outline: as §1

SMILES	herbicidal effect rating, H: barnyard grass
Cc1nn(C)c(=O)c(-c2c(-c3ccc(OC4CCCC4)cc3)sc3ccc(F)cc23)c1O [2-039]	0 (Herbicidal rate of 5% or less (almost no effect))
CCCCCOc1ccc(-c2sc3ccc(F)cc3c2-c2c(OC(=O)CCC)c(C)nn(C)c2=O)cc1 [2-038]	0 (Herbicidal rate of 5% or less (almost no effect))
CCCC(=O)Oc1c(C)nn(C)c(=O)c1-c1c(-c2ccc(OC)cc2)sc2ccc(F)cc12 [2-027]	4 (Herbicidal rate of 70% or more and less than 90%)
